Test results reported in patent US20060069132A1, “Azolecarboxamide herbicides” (priority 2004, published 2006).

Key:
barnyardgrass [1] = assay: Test A pre-/postemergence herbicide test; type: in vivo, Echinochloa crus-galli
In short: (§1)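 Plants are held in greenhouse about ten days after treatment, then compared with untreated controls and scored 0 (no effect) to 100 (complete control). Preemergence dosing is a directed soil spray on sown sandy loam; postemergence dosing is spray to runoff at 2–10 cm height.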

[2] = test system: small flower umbrella sedge; assay: Test B flooded paddy test; type: in vivo, Cyperus difformis; conditions: 1000 g ai/ha, visual rating, scale 0 to 100 (0 no effect, 100 complete control), 13 to 15 days
In short: (§2)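 Visual control ratings, 0–100 versus untreated controls, taken after 13 to 15 days in the greenhouse. Blackgrass received a postemergence spray at the 1- to 4-leaf stage (2–18 cm); ducksalad, umbrella sedge and barnyardgrass were flooded-paddy treated at 2 leaves.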

cocklebur = assay: Test B pre-/postemergence herbicide test; type: in vivo, Xanthium strumarium; conditions: for Cocklebur plant response rating: postemergence, visual rating, scale 0 (no effect) to 100 (complete control)
In short: (§3)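 Response was scored visually 13 to 15 days after treatment against untreated greenhouse controls, 0 meaning no effect and 100 complete control. Formulations (solvent mixture plus surfactant) went onto soil after planting, onto foliage of 1- to 4-leaf plants, and onto 2-leaf plants in a flooded paddy set including rice and barnyardgrass.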

corn = assay: Test B pre-/postemergence herbicide test; type: in vivo, Zea mays; conditions: for Corn plant response rating: postemergence, visual rating, scale 0 (no effect) to 100 (complete control)
In short: as §3

redroot pigweed = assay: Test A pre-/postemergence herbicide test; type: in vivo, Amaranthus retroflexus
In short: as §1

velvetleaf [3] = assay: Test A pre-/postemergence herbicide test; type: in vivo, Abutilon theophrasti
In short: as §1

giant foxtail [4] = assay: Test A pre-/postemergence herbicide test; type: in vivo, Setaria faberi
In short: as §1

rice [5] = assay: Test B pre-/postemergence herbicide test; type: in vivo, Oryza sativa; conditions: preemergence
In short: as §3

morningglory [6] = assay: Test B pre-/postemergence herbicide test; type: in vivo, Ipomoea coccinea; conditions: for Morningglory plant response rating: postemergence, visual rating, scale 0 (no effect) to 100 (complete control)
In short: as §3

large crabgrass [7] = assay: Test B pre-/postemergence herbicide test; type: in vivo, Digitaria sanguinalis; conditions: for Crabgrass, Large plant response rating: postemergence, visual rating, scale 0 (no effect) to 100 (complete control)
In short: as §3

barnyardgrass [8] = assay: Test B pre-/postemergence herbicide test; type: in vivo, Echinochloa crus-galli; conditions: for Barnyardgrass plant response rating: postemergence, visual rating, scale 0 (no effect) to 100 (complete control)
In short: as §3

morningglory [9] = assay: Test A pre-/postemergence herbicide test; type: in vivo, Ipomoea spp.
In short: as §1

Surinam grass = assay: Test B pre-/postemergence herbicide test; type: in vivo, Urochloa decumbens; conditions: for Surinam Grass plant response rating: postemergence, visual rating, scale 0 (no effect) to 100 (complete control)
In short: as §3

velvetleaf [10] = assay: Test B pre-/postemergence herbicide test; type: in vivo, Abutilon theophrasti; conditions: for Velvetleaf plant response rating: postemergence, visual rating, scale 0 (no effect) to 100 (complete control)
In short: as §3

lambsquarters = assay: Test B pre-/postemergence herbicide test; type: in vivo, Chenopodium album; conditions: for Lambsquarters plant response rating: postemergence, visual rating, scale 0 (no effect) to 100 (complete control)
In short: as §3

wild oat = assay: Test B postemergence herbicide test; type: in vivo, Avena fatua; conditions: postemergence, visual rating, scale 0 (no effect) to 100 (complete control)
In short: (§4)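 Treated at 2-leaf (paddy) or 1–4-leaf, 2–18 cm (postemergence); greenhouse 13–15 d; visual score vs control, 0 none to 100 complete control; dash = not tested.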

ducksalad = assay: Test B flooded paddy test; type: in vivo, Heteranthera limosa; conditions: 1000 g ai/ha, visual rating, scale 0 to 100 (0 no effect, 100 complete control), 13 to 15 days
In short: as §2

rice [11] = assay: Test B flooded paddy test; type: in vivo, Oryza sativa; conditions: 1000 g ai/ha, visual rating, scale 0 to 100 (0 no effect, 100 complete control), 13 to 15 days
In short: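 Postemergence plants were sprayed with formulated test chemicals at 2 to 18 cm height (1- to 4-leaf stage); paddy species were grown to the 2-leaf stage. After 13 to 15 days in a greenhouse, injury was rated visually against untreated controls on a 0–100 scale (0 = no effect, 100 = complete control).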

pigweed = assay: Test B pre-/postemergence herbicide test; type: in vivo, Amaranthus retroflexus; conditions: for Pigweed plant response rating: postemergence, visual rating, scale 0 (no effect) to 100 (complete control)
In short: as §3

wheat = assay: Test B postemergence herbicide test; type: in vivo, Triticum aestivum; parameters: key to Wheat plant response rating: 0 = no effect, 100 = complete control; conditions: postemergence, visual rating, scale 0 (no effect) to 100 (complete control)
In short: as §4

giant foxtail [12] = assay: Test B pre-/postemergence herbicide test; type: in vivo, Setaria faberi; conditions: for Foxtail, Giant plant response rating: postemergence, visual rating, scale 0 (no effect) to 100 (complete control)
In short: as §3

blackgrass = assay: Test B postemergence herbicide test; type: in vivo, Alopecurus myosuroides; conditions: postemergence, visual rating, scale 0 (no effect) to 100 (complete control)
In short: as §2

large crabgrass [13] = assay: Test A pre-/postemergence herbicide test; type: in vivo, Digitaria sanguinalis
In short: as §1

barnyardgrass [14] = assay: Test B flooded paddy test; type: in vivo, Echinochloa crus-galli; conditions: 1000 g ai/ha, visual rating, scale 0 to 100 (0 no effect, 100 complete control), 13 to 15 days
In short: as §2

[15] = Postemergence, 500 g ai/ha, 0 to 100 scale, 0 no effect, 100 complete control
[16] = Postemergence, 2000 g ai/ha, 0 to 100 scale, 0 no effect, 100 complete control
[17] = Preemergence, 2000 g ai/ha, visual rating, 0 to 100 scale (0 no effect, 100 complete control)
[18] = preemergence, 500 g ai/ha, visual injury, 0 to 100 scale (0 no effect, 100 complete control)
[19] = 125 g ai/ha, 0 = no effect, 100 = complete control, preemergence
[20] = 500 g ai/ha, visual rating 0-100, 0 no effect, 100 complete control, preemergence

Cc1nc(C(C)(C)C)sc1C(=O)Nc1cccc(C(=O)NCC(F)(F)F)c1 [Compound 201]
Barnyardgrass plant response rating (barnyardgrass [1]; [15]): 10 | Plant response rating, Barnyardgrass (barnyardgrass [1]; [16]): 20 | Barnyardgrass plant response rating (barnyardgrass [1]; [17]): 50 | Barnyardgrass plant response rating (barnyardgrass [1]; [18]): 0 | Sedge, Umbrella plant response rating [2]: 0 | Cocklebur plant response rating (0 to 100 scale) (cocklebur; [19]): 0 | Plant response rating, Cocklebur (cocklebur; [20]): 0 | Cocklebur plant response rating (cocklebur; 125 g ai/ha): 10 | Cocklebur plant response rating (cocklebur; 500 g ai/ha): 10 | Corn plant response rating (0 to 100 scale) (corn; [19]): 0 | Plant response rating, Corn (corn; [20]): 0 | Corn plant response rating (corn; 125 g ai/ha): 10 | Corn plant response rating (corn; 500 g ai/ha): 20 | Pigweed plant response rating (redroot pigweed; [15]): 40 | Plant response rating, Pigweed (redroot pigweed; [16]): 55 | Pigweed plant response rating (redroot pigweed; [17]): 95 | Pigweed plant response rating (redroot pigweed; [18]): 40 | Velvetleaf plant response rating (velvetleaf [3]; [15]): 10 | Plant response rating, Velvetleaf (velvetleaf [3]; [16]): 10 | Velvetleaf plant response rating (velvetleaf [3]; [17]): 35 | Velvetleaf plant response rating (velvetleaf [3]; [18]): 0 | Foxtail, Giant plant response rating (giant foxtail [4]; [15]): 0 | Plant response rating, Foxtail, Giant (giant foxtail [4]; [16]): 10 | Foxtail, Giant plant response rating (giant foxtail [4]; [17]): 15 | Foxtail, Giant plant response rating (giant foxtail [4]; [18]): 0 | Rice plant response rating (0 to 100 scale) (rice [5]; 125 g ai/ha, 0 = no effect, 100 = complete control): 0 | Plant response rating, Rice (rice [5]; 500 g ai/ha, visual rating 0-100, 0 no effect, 100 complete control): 0 | Morningglory plant response rating (0 to 100 scale) (morningglory [6]; [19]): 0 | Plant response rating, Morningglory (morningglory [6]; [20]): 10 | Morningglory plant response rating (morningglory [6]; 125 g ai/ha): 0 | Morningglory plant response rating (morningglory [6]; 500 g ai/ha): 30 | Crabgrass, Large plant response rating (0 to 100 scale) (large crabgrass [7]; [19]): 0 | Plant response rating, Crabgrass, Large (large crabgrass [7]; [20]): 60 | Crabgrass, Large plant response rating (large crabgrass [7]; 125 g ai/ha): 0 | Crabgrass, Large plant response rating (large crabgrass [7]; 500 g ai/ha): 10 | Barnyardgrass plant response rating (0 to 100 scale) (barnyardgrass [8]; [19]): 0 | Plant response rating, Barnyardgrass (barnyardgrass [8]; [20]): 10 | Barnyardgrass plant response rating (barnyardgrass [8]; 125 g ai/ha): 0 | Barnyardgrass plant response rating (barnyardgrass [8]; 500 g ai/ha): 0 | Morningglory plant response rating (morningglory [9]; [15]): 25 | Plant response rating, Morningglory (morningglory [9]; [16]): 30 | Morningglory plant response rating (morningglory [9]; [17]): 5 | Morningglory plant response rating (morningglory [9]; [18]): 0 | Surinam Grass plant response rating (0 to 100 scale) (Surinam grass; [19]): 0 | Plant response rating, Surinam Grass (Surinam grass; [20]): 0 | Surinam Grass plant response rating (Surinam grass; 125 g ai/ha): 0 | Surinam Grass plant response rating (Surinam grass; 500 g ai/ha): 10 | Velvetleaf plant response rating (0 to 100 scale) (velvetleaf [10]; [19]): 0 | Plant response rating, Velvetleaf (velvetleaf [10]; [20]): 10 | Velvetleaf plant response rating (velvetleaf [10]; 125 g ai/ha): 0 | Velvetleaf plant response rating (velvetleaf [10]; 500 g ai/ha): 0 | Lambsquarters plant response rating (0 to 100 scale) (lambsquarters; [19]): 0 | Plant response rating, Lambsquarters (lambsquarters; [20]): 30 | Lambsquarters plant response rating (lambsquarters; 125 g ai/ha): 40 | Lambsquarters plant response rating (lambsquarters; 500 g ai/ha): 40 | Oat, Wild plant response rating (wild oat; 125 g ai/ha): 10 | Oat, Wild plant response rating (wild oat; 500 g ai/ha): 10 | Ducksalad plant response rating (ducksalad): 0 | Rice plant response rating (rice [11]): 0 | Pigweed plant response rating (0 to 100 scale) (pigweed; [19]): 0 | Plant response rating, Pigweed (pigweed; [20]): 20 | Pigweed plant response rating (pigweed; 125 g ai/ha): 10 | Pigweed plant response rating (pigweed; 500 g ai/ha): 40 | Wheat plant response rating (wheat; 125 g ai/ha): 0 | Wheat plant response rating (wheat; 500 g ai/ha): 0 | Foxtail, Giant plant response rating (0 to 100 scale) (giant foxtail [12]; [19]): 0 | Plant response rating, Foxtail, Giant (giant foxtail [12]; [20]): 0 | Foxtail, Giant plant response rating (giant foxtail [12]; 125 g ai/ha): 0 | Foxtail, Giant plant response rating (giant foxtail [12]; 500 g ai/ha): 0 | Blackgrass plant response rating (blackgrass; 125 g ai/ha): 0 | Blackgrass plant response rating (blackgrass; 500 g ai/ha): 0 | Crabgrass, Large plant response rating (large crabgrass [13]; [15]): 10 | Plant response rating, Crabgrass, Large (large crabgrass [13]; [16]): 20 | Crabgrass, Large plant response rating (large crabgrass [13]; [17]): 70 | Crabgrass, Large plant response rating (large crabgrass [13]; [18]): 35 | Barnyardgrass plant response rating (barnyardgrass [14]): 0
